Results on 5 compounds are retold here after US20230365590A1, “BIPHENYL COMPOUND AS IMMUNOMODULATOR, PREPARATION METHOD THEREFOR AND APPLICATION THEREOF” (SHENZHEN CHIPSCREEN BIOSCIENCES CO., LTD., priority 2020, published 2023).

For test [1], the target named is CD80/PD-L1 binding (recombinant human His-CD80 protein and PD-L1-Fc fusion protein) (Homo sapiens (Human), UniProt Q9NZQ7). The test is described as follows: In vitro inhibitory activity against CD80/PD-L1 binding (HTRF). To be noted: read-out: IC50 for inhibiting CD80/PD-L1 binding in vitro. From the text:
In addition to PD-1, PD-L1 can also play an immune inhibition role by binding to CD80. Similarly, in vitro CD80/PD-L1 binding or binding inhibition test can also be conducted by homogeneous time-resolved fluorescence (HTRF). When the anti-hFc-Eu^3+ antibody and the anti-His-XL665 antibody are used to bind to the hFC tag fused to PD-L1 and the His tag fused to CD80 respectively, and after excitation with 320 nm laser, energy can be transferred from Eu element to XL665 fluorescein due to the binding of PD-L1 and CD80 to excite the XL665 fluorescein to emit light. When an inhibitor for inhibiting interaction of PD-L1 and CD80 is added, the binding of PD-L1 and CD80 is destroyed, causing a long distance between Eu and XL665. As a result, the energy cannot be transferred, and the XL665 fluorescein will not be excited.
(§1) The recombinant human CD80 protein with His tag (His-CD80 protein, Cat #: 10698-H08H-100) and the recombinant human PD-L1-Fc fusion protein (PD-L1-Fc fusion protein, Cat #: 10084-H02H-100) were purchased from Sino Biological Inc., anti-hFc-Eu^3+ antibody and anti-His-XL665 antibody were purchased from Cisbio, and other related reagents such as a diluent buffer (Diluent buffer 5 (Cat #: 62DL5DDC) and a detection buffer (PPI-European detection buffer, Cat #: 61DB9RDF) were purchased from Cisbio. Fluorescence detector Tecan (Spark 10M) was purchased from Tecan Company in Switzerland.
The experiment process was carried out according to the flow required in the operating manual of the test reagent (Invitrogen). The process was as follows: • (1) Experiment preparation: A test compound was diluted to different concentration gradients with the dilution buffer (the highest final concentration in a 20 μL final reaction system was 10 μM). The His-CD80 protein was diluted to 800 nM (the final concentration in the 20 final reaction system was 100 nM). The PD-L1-Fc fusion protein was diluted to 16 nM (the final concentration was 2 nM). The anti-His-XL665 antibody and the anti-hFc-Eu^3+antibody were diluted 20 times and 100 times respectively with the detection buffer according to reagent requirements. • (2) First, 5 μL of the test compound, 2.5 μL of the His-CD80 fusion protein and 2.5 μL of the […] fusion protein solution were well mixed and incubated at room temperature for 15 min; then, 5 μL of the anti-His-XL665 antibody and 5 μL of the anti-hFc-Eu^3+antibody were added to the system and further incubated for 3 h before test. • (3) During the test reaction, control groups were set, including a 0% inhibitory positive control without adding the test compound and a 100% inhibitory negative control without adding the CD80 protein. All tests were conducted by use of multiple holes. • (4) The fluorescence detector Tecan (Spark 10M) was used to detect the fluorescence signal of each hole. The excitation wavelength was 320 nm, and the emission wavelengths for detection were 620 nm and 665 nm, respectively. The strength of CD80/PD-L1 binding refers to a fluorescence signal ratio Em665/Em620. • (5) Calculation formula of binding inhibition rate of test compound: Inhibition rate (%)=[1−(fluorescence signal ratio of detected hole−fluorescence signal ratio of 100% inhibition negative control)]/(fluorescence signal ratio of 0% inhibition positive control — fluorescence signal ratio of 100% inhibition negative control)×100%. The 50% inhibition concentration (IC50) was calculated after the CD80/PD-L1 binding inhibition rates of the test compound with different concentration gradients were calculated respectively.
(In TR-FRET formats the signal depends on donor and acceptor labels being close together.)

For test [2], the target named is PD-1/PD-L1 binding (recombinant human PD-L1-Fc fusion protein and His-PD-1 protein) (Homo sapiens (Human), UniProt Q9NZQ7). Briefly: In vitro inhibitory activity against PD-1/PD-L1 binding (HTRF). Particulars: read-out: IC50 for inhibiting PD-1/PD-L1 binding in vitro.
Chain of PD-1/PD-L1 binding (recombinant human PD-L1-Fc fusion protein and His-PD-1 protein) (Q9NZQ7 19-239): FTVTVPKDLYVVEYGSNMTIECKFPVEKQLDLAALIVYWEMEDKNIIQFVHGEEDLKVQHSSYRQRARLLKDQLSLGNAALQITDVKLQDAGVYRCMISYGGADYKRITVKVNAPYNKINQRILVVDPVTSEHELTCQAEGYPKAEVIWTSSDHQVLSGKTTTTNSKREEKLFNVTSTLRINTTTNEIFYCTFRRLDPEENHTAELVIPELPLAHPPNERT
Text: Homogeneous time resolved fluorescence method (HTRF): This method uses the recombinant human PD-L1 protein fused with hFc tag and the recombinant human PD-1 protein fused with His tag, which are interacting ligands and receptors. When the anti-hFc antibody containing chelated Eu tag and the anti-His antibody containing XL665 fluorescein tag are used to bind with the above two corresponding tags respectively and are excited by 320 nm laser, energy can be transferred from Eu element to XL665 fluorescein due to ligand receptor binding, and the XL665 fluorescein is excited to emit light with a wavelength of 665 nm. When an inhibitor for inhibiting interaction of PD-L1 and PD-1 is added, the binding of the ligand and the receptor is destroyed, causing a long distance between Eu and XL665. As a result, the energy cannot be transferred, and the XL665 fluorescein will not be excited.
as §1, with “Experimental Materials and Devices The” for “The”, “PD-1” for “CD80”, “(His-PD-1” for “(His-CD80”, “10377-H08H-50)” for “10698-H08H-100)”, “(diluent” for “(Diluent”
The experiment process was carried out according to the flow required in the operating manual of the test reagent. The process was as follows: • (1) Experiment preparation: A test compound was diluted to different concentration gradients with the dilution buffer (the highest final concentration in a 20 μL final reaction system was 10 μM). The His-PD-1 protein was diluted to 800 nM (the final concentration in the 20 final reaction system was 100 nM). The PD-L1-Fc fusion protein was diluted to 16 nM (the final concentration was 2 nM). […] All tests were conducted by use of multiple holes. • (4) The fluorescence detector Tecan (Spark 10M) was used to detect the fluorescence signal of each hole. The excitation wavelength was 320 nm, and the emission wavelengths for detection were 620 nm and 665 nm, respectively. The strength of PD-1/PD-L1 binding refers to a fluorescence signal ratio Em665/Em620. • (5) Calculation formula of binding inhibition rate of test compound: Inhibition rate (%)=[1−(fluorescence signal ratio of detected hole−fluorescence signal ratio of 100% inhibition negative control)]/(fluorescence signal ratio of 0% inhibition positive control−fluorescence signal ratio of 100% inhibition negative control)×100%. The 50% inhibition concentration (IC50) was calculated after the PD-1/PD-L1 binding inhibition rates of the test compound with different concentration gradients were calculated respectively.

Chain of CD80/PD-L1 binding (recombinant human His-CD80 protein and PD-L1-Fc fusion protein) (Q9NZQ7 19-239): as above

In the case of `COCC12CCC(CCCN3CCc4c(nc(C(=O)Nc5cccc(-c6cccc(NC(=O)c7nc8c(n7C)CCN(CCC79CCC(C(=O)O)(CC7)C9)C8)c6C)c5Cl)n4C)C3)(CC1)C2` [Compound I-1, 4-(2-(2-((2′-chloro-3′-(5-(3-(4-(methoxymethyl)bicyclo[2. 2.1]heptan-1-yl)propyl)-1-methyl-4,5,6,7-tetrahydro-1H-imidazo[4,5-c]pyridine-2-carboxamido) -2-methyl-[1,1′-biphenyl]-3-yl)carbamoyl)-1-methyl-1,4,6,7-tetrahydro-5H-imidazo[4,5-c]pyridin-5-yl)ethyl)bicyclo[2.2.1]heptane-1-carboxylic acid], the figures for the IC50 in test [1] and in test [2] were 0.84 nM and 1.47 nM, respectively.
Regarding `COCC12CCC(CCCN3CCc4c(nc(C(=O)Nc5cccc(-c6cccc(NC(=O)c7nc8c(n7C)CCN(CCC79CCC(C(=O)O)(CC7)C9)C8)c6Cl)c5C)n4C)C3)(CC1)C2` [Compound I-2, 4-(2-(2-((2-chloro-3′-(5-(3-(4-(methoxymethyl)bicyclo[2.2.1]heptan-1-yl)propyl)-1-methyl-4,5,6,7-tetrahydro-1H-imidazo[4,5-c]pyridine-2-carboxamido)-2′-methyl-[1,1′-biphenyl]-3-yl)carbamoyl)-1-methyl-1,4,6,7-tetrahydro-5H-imidazo[4,5-c]pyridin-5-yl)ethyl)bicyclo[2.2.1]heptane-1-carboxylic acid], the IC50 was 0.79 nM in test [1] and 1.32 nM in test [2].
In the case of `CCOCC12CCC(CCN3CCc4c(nc(C(=O)Nc5cccc(-c6cccc(NC(=O)c7nc8c(n7C)CCN(CCC79CCC(C(=O)O)(CC7)C9)C8)c6C)c5Cl)n4C)C3)(CC1)C2` [Compound I-3, 4-(2-(2-((2′-chloro-3′-(5-(2-(4-(ethoxymethyl)bicyclo[2.2.1]heptan-1-yl)ethyl)-1-methyl-4,5 ,6,7-tetrahydro-1H-imidazo[4,5-c]pyridine-2-carboxamido)-2-methyl-[1,1′-biphenyl]-3-yl)carbamoyl)-1-methyl-1,4,6,7-tetrahydro-5H-imidazo[4,5-c]pyridin-5-yl)ethyl)bicyclo[2.2.1]heptane-1-carboxylic acid], the IC50 in test [1] turned out to be 0.96 nM; in test [2], 1.19 nM.
Consider `COCC12CCC(CCN3CCc4c(nc(C(=O)Nc5cccc(-c6cccc(NC(=O)c7nc8c(n7C)CCN(CCC79CCC(C(=O)O)(CC7)C9)C8)c6C)c5Cl)n4C)C3)(CC1)C2` [Compound I-4, 4-(2-(2-((2′-chloro-3′-(5-(2-(4-(methoxymethyl)bicyclo[2. 2.1]heptan-1-yl)ethyl)-1-methyl-4,5,6,7-tetrahydro-1H-imidazo[4,5-c]pyridine-2-carboxamido)-2-methyl-[1 ,1′-biphenyl]-3-yl)carbamoyl)-1-methyl-1,4,6,7-tetrahydro-5H-imidazo[4,5-c]pyridin-5-yl)ethyl)bicyclo[2.2.1]heptane-1-carboxylic acid], for which the IC50 in test [1] worked out at 2.78 nM; in test [2], 1.89 nM.
With `COCC12CCC(CCN3CCc4c(nc(C(=O)Nc5cccc(-c6cccc(NC(=O)c7nc8c(n7C)CCN(CCC79CCC(C(=O)O)(CC7)C9)C8)c6Cl)c5Cl)n4C)C3)(CC1)C2` [Compound I-6, 4-(2-(2-((2,2′-dichloro-3′-(5-(2-(4-(methoxymethyl)bicyclo[2.2.1]heptan-1-yl)ethyl)-1-methyl-4,5,6,7-tetrahydro-1H-imidazo[4,5-c]pyridine-2-carboxamido)-[1, 1′-biphenyl]-3-yl)carbamoyl)-1-methyl-1,4,6,7-tetrahydro-5H-imidazo[4,5-c]pyridin-5-yl)ethyl)bicyclo[2.2.1]heptane-1-carboxylic acid], the IC50 in test [1] was found to be 0.86 nM.
